{
  "source": "patent US20250000874A1",
  "about": "“BACTERIAL METABOLITES AND THEIR USE IN REDUCING INFLAMMATION” (LOYOLA UNIVERSITY OF CHICAGO, priority 2023, published 2025)",
  "tested_on": "NLRP3 inflammasome",
  "experiment": "JE on IL-1β production and caspase-1 activation by BMDMs upon NLRP3 activation",
  "type": "cell-based, mouse",
  "conditions": "for IL-1β production upon NLRP3 activation with ATP: 5 mM ATP",
  "experimental": "(§1) FIG. 19. The Effect of JE on IL-1β Production by BMDMs Upon NLRP3 Activation. Macrophages were pretreated with the metabolite JE at a concentration of 50 μM overnight at 37° C., 5% CO2. The following day, macrophages were primed with LPS at 500 ng/ml for 4 hours and then activated by ATP for 1 hour at 37° C., 5% CO2. Another approach is to prime the cells with 10 ng/ml LPS for 4 hours, then pretreat with JE overnight. The following day, macrophages were activated with 5 mM ATP for an hour at 37° C., 5% CO2. Supernatants were collected, and […] was measured using ELISA. Data are presented as mean±SEM (n=6). **p<0.01. One of three experiments is shown.\nas §1, with “20.” for “19.”\nFIG. 21. The Impact of JE on Caspase-1 Activation After Priming the Cells with LPS. BMDMs were cultured and seeded as described before. Macrophages were first primed with LPS for 4 hours at 37° C. with 5% CO2. After that, they were treated with the metabolite JE for 1 (LPS1ATP), 2 (LPS2ATP), and 3 (LPS3ATP) hours. Then, the cells were exposed to media containing 5 mM ATP for 1 hour at 37° C. with 5% CO2. Finally, the supernatants were collected and the level of IL-1β was measured using ELISA. Data are presented as mean±SEM (n=6). *p<0.05; ***p<0.001. One of two experiments is shown.\nNext, we explored how JE inhibits caspase-1 activation as well as IL-1β production. As stated above, NLRP3 activation adopts a two-step dogma: priming with LPS, followed by activation by ATP, nigericin, or MSU crystals. […] To achieve that, JE was used to pretreat BMDMs overnight at 37° C., 5% CO2; the next day, macrophages were primed with LPS for 4 hours, then stimulated with ATP for an hour. I collected the supernatant and measured IL-1β by ELISA.\nIn an attempt to determine whether JE inhibits the priming or the activation step, BMDMs were stimulated with LPS, then the metabolite JE was used to treat the cells overnight at 37° C., 5% CO2. The following day, macrophages were stimulated with ATP for an hour, then, supernatant was collected to measure IL-1β by ELISA. PBS was used as a control to JE in this experiment. In both conditions, I did a western blot on caspase-1 to elucidate whether JE inhibits caspase-1 activation or not.\nIt was also evident by the absence of active caspase-1 in the supernatant on western blot analysis (data not shown). To determine whether JE inhibits the activation signal, instead of pretreating the macrophages with JE overnight. BMDMs were treated with the metabolite JE for 1 hour, 2 hours, and 3 hours after priming with LPS for 4 hours; then 5 mM of ATP was.",
  "data": [
    {"smiles": "CC(=O)O[C@@H]1CC[C@H]2[C@H]3CC[C@H]4CC(F)(F)CC[C@]4(C)[C@H]3CC[C@]12C", "note": "[JE, 3,3-Difluoro-5-alpha-androstan-17-beta-yl acetate]", "values": [
      {"measurement": "IL-β upon activation of NLRP3 inflammasome", "setting": "JE 50 μM pretreatment overnight, LPS priming 4 hours, ATP 1 hour", "result": "completely abolished"},
      {"measurement": "IL-1β production upon NLRP3 activation with ATP", "setting": "JE for 1 hour after priming with LPS 4 hours", "result": "did not have the same effect"},
      {"measurement": "IL-1β production upon NLRP3 activation with ATP", "setting": "JE for 2 hours after priming with LPS 4 hours", "result": "did not have the same effect"},
      {"measurement": "IL-1β production upon NLRP3 activation with ATP", "setting": "JE for 3 hours after priming with LPS 4 hours", "result": "significantly decrease"},
      {"measurement": "active caspase-1 in the supernatant (western blot)", "setting": "JE pretreatment, LPS priming, ATP", "result": "absence"}
    ]}
  ]
}
